Results from patent US11434237B2, “Selective ligands for tau aggregates” (KARIN & STEN MORTSTEDT CBD SOLUTIONS AB, priority 2017, dated 2022).
“Also recorded” adds a separate entry of the source.

Columns and labels:
Aβ aggregates = biological target: T1, Aβ aggregates (Homo sapiens, UniProt P05067); assay: Compound and antibody 4G8 double staining of AD brain tissue sections; format: binding; settings: for Overlap between Fluorescence from tested compound and fluorescence from 4G8 observed / Fluorescence from tested compound observed / Staining of / selectivity for Aβ and tau aggregates in AD brain sections: 100 nM compound; for Overlap between Fluorescence from tested compound and fluorescence from 4G8 observed / Fluorescence from tested compound observed: human AD brain tissue sections; for Overlap between Fluorescence from tested compound and fluorescence from 4G8 observed: Aβ antibody 4G8; for Fluorescence from tested compound observed: double staining with Aβ antibody 4G8; for Staining of / selectivity for Aβ and tau aggregates in AD brain sections: stained in combination with 4G8; for Fluorescence from 4G8 observed: signal of Aβ antibody 4G8 in the section stained with 100 nM of the compound
T1 construct: compound and antibody double staining of Aβ or tau aggregates; from tissue; host or cells: human AD brain tissue sections (20 μm)
Experimental: (§1) To achieve compound and antibody double staining of Aβ or tau aggregates, tissue sections (20 μm) from human AD brain were fixed in 70% EtOH at 4° C. for 3 min, rehydrated in distilled water and then incubated in PBS for 30 min. Sections were blocked and permeabilized in PBS with 5% normal goat serum and 0.1% triton X-100 (blocking buffer) for 1 h at room temperature (RT). Antibody 4G8 (Biolegend, San Diego, Calif., USA) reactive to Aβ, and AT100 (Thermo Fisher Scientific, Waltham, Mass., USA) directed against tau phosphorylated at […] (3) were diluted 1:500 and 1:1000, respectively, in blocking buffer and added to the sections. After 16 h incubation at 4° C. unbound antibody was removed by washing in PBS with 0.1% triton X-100 (PBS-T) 3×10 min. To visualize antibody binding to Aβ or tau aggregates sections were incubated with goat anti-mouse secondary antibody labelled with Alexa 647 (Thermo Fisher Scientific). The antibody was diluted 1:200 in blocking buffer and after 1 h incubation at RT sections were washed in PBS 3×10 min. Example Compound 3a, Example Compound 3b, Example Compound 3c, Example Compound 3d, Example Compound 3e, Example Compound 3f, Example Compound 3g, Example Compound 3h, Example Compound 3i, Example Compound 3j, Example Compound 3k, Example Compound 3m, Example Compound 3n, Example Compound 3o, Example Compound 3p, Example Compound 3q, Example Compound 3r, Example Compound 3s, Example Compound 3t, Example Compound 3u, Example Compound 8a, Comparative Example 1, Comparative Example 2, Comparative Example 3 and Comparative Example 4 were dissolved in DMSO to a concentration of 1.5 mM and then further diluted in PBS to a final concentration of 100 nM compound prior to staining. The tissue sections were then stained for 30 min at RT with these freshly prepared solutions containing 100 nM of the respective compound in PBS. After three washes in PBS the sections were mounted in Dako mounting medium for fluorescence (Dako Cytomation, Glostrup, Denmark) and allowed to dry overnight before analysis. Fluorescence images were collected using an inverted LSM 780 confocal microscope (Carl Zeiss, Oberkochen, Germany) with the following excitation/emission wavelengths optimized for each compound: 458/484-600 (Comparative Example 1, Comparative Example 3), 561/569-648 (Example Compound 3a, Example Compound 3b, Example Compound 3c, Example Compound 3d, Example Compound 3e, Example Compound 3f, Example Compound 3g, Example Compound 3h, Example Compound 3i, Example Compound 3j, Example Compound 3k, Example Compound 3m, Example Compound 3n, Example Compound 3o, Example Compound 3p, Example Compound 3q, Example Compound 3r, Example Compound 3s, Example Compound 3t, Example Compound 3u, Example Compound 8a, Comparative Example 2 and Comparative Example 4) and 633/638-755 (Alexa 647). To visualize autofluorescent lipofuscin excitation/emission wavelengths 405/410-480 or 405/410-514 were used.

tau aggregates = biological target: T2, tau aggregates (Homo sapiens, UniProt P10636); assay: Compound and antibody AT100 double staining of AD brain tissue sections; format: binding; settings: for Labelling of immune-positive NFTs and dystrophic neurites / Fluorescence from tested compound observed / Overlap between Fluorescence from tested compound and fluorescence from AT-100 observed: 100 nM compound; for Labelling of immune-positive NFTs and dystrophic neurites: AT100 co-staining, AD brain sections; for Fluorescence from tested compound observed / Overlap between Fluorescence from tested compound and fluorescence from AT-100 observed: human AD brain tissue sections; for Fluorescence from tested compound observed: double staining with tau antibody AT-100; for Overlap between Fluorescence from tested compound and fluorescence from AT-100 observed: tau antibody AT-100; for Fluorescence from AT-100 observed: signal of tau antibody AT-100 in the section stained with 100 nM of the compound
T2 construct: tissue sections (20 μm) from human AD brain; from tissue; host or cells: human AD brain tissue sections (20 μm)
Experimental: as §1

T1 sequence (P05067 672-713 limits assumed): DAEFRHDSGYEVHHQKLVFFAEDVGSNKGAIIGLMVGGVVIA
T2 sequence (P10636 1-441 isoform P10636-8): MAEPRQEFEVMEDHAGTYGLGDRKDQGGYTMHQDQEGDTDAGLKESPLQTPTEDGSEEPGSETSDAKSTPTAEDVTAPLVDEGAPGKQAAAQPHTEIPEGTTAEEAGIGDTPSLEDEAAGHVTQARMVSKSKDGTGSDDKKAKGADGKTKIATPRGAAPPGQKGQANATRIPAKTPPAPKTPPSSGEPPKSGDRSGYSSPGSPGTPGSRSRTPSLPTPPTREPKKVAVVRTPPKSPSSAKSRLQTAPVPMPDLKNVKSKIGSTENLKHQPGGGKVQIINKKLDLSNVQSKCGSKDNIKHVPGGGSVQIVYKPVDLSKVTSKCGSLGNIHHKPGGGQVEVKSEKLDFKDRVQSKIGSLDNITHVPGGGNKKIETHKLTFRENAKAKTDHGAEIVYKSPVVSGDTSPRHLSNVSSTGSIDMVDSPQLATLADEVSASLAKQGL

Row | SMILES | Overlap between Fluorescence from tested compound and fluorescence from 4G8 observed (Aβ aggregates) | Fluorescence from tested compound observed (Aβ aggregates) | Staining of / selectivity for Aβ and tau aggregates in AD brain sections (Aβ aggregates) | Fluorescence from 4G8 observed (Aβ aggregates) | Labelling of immune-positive NFTs and dystrophic neurites (tau aggregates) | Fluorescence from tested compound observed (tau aggregates) | Overlap between Fluorescence from tested compound and fluorescence from AT-100 observed (tau aggregates) | Fluorescence from AT-100 observed (tau aggregates)
1 | CCn1c(/C=C/c2ccc(-c3ccc(C(=O)OC)s3)s2)nc2ccccc21 [Comparative Example 1] | yes | Yes | staining towards immune-positive Aβ aggregates, as well as some weak staining of tau-like pathology; also recorded: selectivity for Aβ | yes |  |  |  | 
2 | COC(=O)Cc1cc(-c2ccc(-c3nc4ccccc4s3)s2)sc1-c1cc(C(=O)OC)cs1 [Comparative Example 2] |  | no | did not display any substantial staining; also recorded: no staining | yes |  |  |  | 
3 | O=C(O)Cc1cc(-c2ccc(-c3nc4ccccc4s3)s2)sc1-c1cc(C(=O)O)cs1 [Comparative Example 3] | yes | yes | staining of both Aβ and tau aggregates; also recorded: no selectivity | yes |  |  |  | 
4 | COC(=O)c1csc(-c2ccc(-c3ccc(-c4nc5ccccc5s4)s3)s2)c1 [Comparative Example 4] |  | no | did not display any substantial staining; also recorded: no staining | yes |  |  |  | 
5 | CC[n+]1c(/C=C/c2ccc(-c3cccs3)s2)sc2ccccc21 [Example Compound 3c] | no correlation and no | yes |  | yes | labelled both immune-positive NFTs and dystrophic neurites | yes | yes | yes
6 | CC[n+]1c(/C=C/c2ccc(-c3ccc(CC(=O)OC)s3)s2)sc2ccccc21.[I-] [Example Compound 3d] | no correlation and no | yes |  | yes | labelled both immune-positive NFTs and dystrophic neurites | yes | yes | yes
7 | CC[n+]1c(/C=C/c2ccc(-c3ccc(C(=O)OC)s3)s2)sc2cc(OC)ccc21.[I-] [Example Compound 3e] | no correlation and no | yes |  | yes | labelled both immune-positive NFTs and dystrophic neurites | yes | yes | yes
8 | COC(=O)c1ccc(-c2ccc(/C=C/c3sc4ccccc4[n+]3C)s2)s1.[I-] [Example Compound 3f] | no correlation and no | yes |  | yes | labelled both immune-positive NFTs and dystrophic neurites | yes | yes | yes
9 | CC[CH-][n+]1c(/C=C/c2ccc(-c3ccc(C(=O)OC)s3)s2)sc2ccccc21 [Example Compound 3g] | no correlation and no | yes |  | yes | labelled both immune-positive NFTs and dystrophic neurites | yes | yes | yes
10 | CC[n+]1c(/C=C/c2ccc(-c3ccc(OC)s3)s2)sc2ccccc21.[I-] [Example Compound 3h] | no correlation and no | yes |  | yes | labelled both immune-positive NFTs and dystrophic neurites | yes | yes | yes
11 | CC[n+]1c(/C=C/c2ccc(-c3ccc(C(=O)OC)o3)o2)sc2ccccc21.[I-] [Example Compound 3i] | no correlation and no | yes |  | yes | labelled both immune-positive NFTs and dystrophic neurites | yes | yes | yes
12 | CC[n+]1c(/C=C/c2cnc(-c3ccc(C(=O)OC)s3)s2)sc2ccccc21.[I-] [Example Compound 3j] | no correlation and no | yes |  | yes | labelled both immune-positive NFTs and dystrophic neurites | yes | yes | yes
13 | CC[n+]1c(/C=C/c2ccc(-c3ccc(C(=O)OC)cn3)s2)sc2ccccc21.[I-] [Example Compound 3k] | no correlation and no | yes |  | yes | labelled both immune-positive NFTs and dystrophic neurites | yes | yes | yes
14 | CC[n+]1c(/C=C/c2ccc(-c3ccc4c(c3)OCO4)s2)sc2ccccc21.[I-] [Example Compound 3m] | no correlation and no | yes |  | yes | labelled both immune-positive NFTs and dystrophic neurites | yes | yes | yes
15 | CC[n+]1c(/C=C/c2ccc(-c3ccc4nsnc4c3)s2)sc2ccccc21 [Example Compound 3n] | no correlation and no | yes |  | yes | labelled both immune-positive NFTs and dystrophic neurites | yes | yes | yes
